Measured values published in paper PMC317295 (BMC Pharmacology, 2003).

Biological target: β2-adrenergic receptor (β2AR) (Homo sapiens, UniProt P07550)
Test: radioligand saturation binding on membranes

Chain of β2-adrenergic receptor (β2AR) (P07550 whole entry): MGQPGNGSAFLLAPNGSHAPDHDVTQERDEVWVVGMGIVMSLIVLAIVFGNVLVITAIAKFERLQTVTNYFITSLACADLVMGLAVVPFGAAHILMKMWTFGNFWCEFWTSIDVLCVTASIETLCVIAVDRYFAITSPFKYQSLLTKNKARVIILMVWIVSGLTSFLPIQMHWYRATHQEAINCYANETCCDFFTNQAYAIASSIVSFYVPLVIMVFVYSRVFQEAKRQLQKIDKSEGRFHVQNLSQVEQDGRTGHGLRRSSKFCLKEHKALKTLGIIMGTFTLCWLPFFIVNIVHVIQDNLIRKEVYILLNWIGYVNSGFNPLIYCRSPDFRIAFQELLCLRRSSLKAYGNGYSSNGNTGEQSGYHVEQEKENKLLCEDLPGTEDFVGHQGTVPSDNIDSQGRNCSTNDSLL

CCCc1ccccc1OCC(O)CNC(C)C (stereo not shown) [[3H]dihydroalprenolol]
Kd: 0.42 ± 0.1 nM
